Assay results as given in ChEMBL document CHEMBL1909046, “DrugMatrix in vitro pharmacology data”.

target: Beta-3 adrenergic receptor (Homo sapiens, UniProt P13945); test: DRUGMATRIX: Adrenergic beta3 radioligand binding (ligand: [125I] Cyanopindolol); assay type: cell membranes, HEK293, Membrane; conditions: hek293; Not Active = under 50% inhibition at 10 µM
Sequence (P13945 whole entry): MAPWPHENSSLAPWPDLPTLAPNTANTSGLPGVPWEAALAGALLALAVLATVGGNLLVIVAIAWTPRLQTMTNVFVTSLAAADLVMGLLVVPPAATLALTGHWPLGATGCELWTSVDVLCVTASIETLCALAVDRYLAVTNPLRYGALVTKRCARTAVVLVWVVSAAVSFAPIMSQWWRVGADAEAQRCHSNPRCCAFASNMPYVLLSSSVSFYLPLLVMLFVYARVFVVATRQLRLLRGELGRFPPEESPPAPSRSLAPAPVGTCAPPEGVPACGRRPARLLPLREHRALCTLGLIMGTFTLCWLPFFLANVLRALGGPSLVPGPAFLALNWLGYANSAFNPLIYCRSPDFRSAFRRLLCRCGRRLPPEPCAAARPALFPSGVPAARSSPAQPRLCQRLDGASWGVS

Structure (SMILES) | IC50
O=C(O)CCCCC1CCSS1 (stereo not drawn) [LIPOIC ACID, ALPHA] | Not Active
Oc1ccc2c3c1O[C@H]1[C@@H](O)CC[C@@]4(O)[C@@H](C2)N(CC2CCC2)CC[C@]314 [NALBUPHINE] | Not Active
C[C@]12C=CC(=O)C=C1CC[C@@H]1[C@@H]2C(=O)C[C@@]2(C)[C@H]1CC[C@]2(O)C(=O)CO [PREDNISONE] | Not Active
OCCOCCN1CCN(C2=Nc3ccccc3Sc3ccccc32)CC1 [QUETIAPINE] | Not Active
COC(=O)[C@H]1[C@H]2C[C@@H]3c4[nH]c5cc(OC)ccc5c4CCN3C[C@H]2C[C@@H](OC(=O)c2cc(OC)c(OC)c(OC)c2)[C@@H]1OC [RESERPINE] | Not Active
O=C(O)c1ccccc1O [SALICYLIC ACID] | Not Active
C[S+]([O-])c1ccc(-c2nc(-c3ccncc3)c(-c3ccc(F)cc3)[nH]2)cc1 (configuration not stated) [SB-203580] | Not Active

target: Aldo-keto reductase family 1 member B1 (Rattus norvegicus, UniProt P07943); test: biochemical; assay type: tissue-based, Lens of camera-type eye; conditions: not given;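 note: inhibition of aldose reductase enzyme activity, measured with DL-glyceraldehyde as the substrate; in other assays of this panel Not Active means under 50% inhibition at 10 µM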

Structure (SMILES) | IC50
O=C(O)CCCCC1CCSS1 (stereo not drawn) [LIPOIC ACID, ALPHA] | Not Active
Oc1ccc2c3c1O[C@H]1[C@@H](O)CC[C@@]4(O)[C@@H](C2)N(CC2CCC2)CC[C@]314 [NALBUPHINE] | Not Active
C[C@]12C=CC(=O)C=C1CC[C@@H]1[C@@H]2C(=O)C[C@@]2(C)[C@H]1CC[C@]2(O)C(=O)CO [PREDNISONE] | Not Active
OCCOCCN1CCN(C2=Nc3ccccc3Sc3ccccc32)CC1 [QUETIAPINE] | Not Active
COC(=O)[C@H]1[C@H]2C[C@@H]3c4[nH]c5cc(OC)ccc5c4CCN3C[C@H]2C[C@@H](OC(=O)c2cc(OC)c(OC)c(OC)c2)[C@@H]1OC [RESERPINE] | Not Active
O=C(O)c1ccccc1O [SALICYLIC ACID] | Not Active
C[S+]([O-])c1ccc(-c2nc(-c3ccncc3)c(-c3ccc(F)cc3)[nH]2)cc1 (configuration not stated) [SB-203580] | Not Active

target: Vascular endothelial growth factor receptor 1 (Homo sapiens, UniProt P17948); test: not given; assay type: cell-based; conditions: huvec; note: in other assays of this panel Not Active means under 50% inhibition at 10 µM
Sequence (P17948 whole entry): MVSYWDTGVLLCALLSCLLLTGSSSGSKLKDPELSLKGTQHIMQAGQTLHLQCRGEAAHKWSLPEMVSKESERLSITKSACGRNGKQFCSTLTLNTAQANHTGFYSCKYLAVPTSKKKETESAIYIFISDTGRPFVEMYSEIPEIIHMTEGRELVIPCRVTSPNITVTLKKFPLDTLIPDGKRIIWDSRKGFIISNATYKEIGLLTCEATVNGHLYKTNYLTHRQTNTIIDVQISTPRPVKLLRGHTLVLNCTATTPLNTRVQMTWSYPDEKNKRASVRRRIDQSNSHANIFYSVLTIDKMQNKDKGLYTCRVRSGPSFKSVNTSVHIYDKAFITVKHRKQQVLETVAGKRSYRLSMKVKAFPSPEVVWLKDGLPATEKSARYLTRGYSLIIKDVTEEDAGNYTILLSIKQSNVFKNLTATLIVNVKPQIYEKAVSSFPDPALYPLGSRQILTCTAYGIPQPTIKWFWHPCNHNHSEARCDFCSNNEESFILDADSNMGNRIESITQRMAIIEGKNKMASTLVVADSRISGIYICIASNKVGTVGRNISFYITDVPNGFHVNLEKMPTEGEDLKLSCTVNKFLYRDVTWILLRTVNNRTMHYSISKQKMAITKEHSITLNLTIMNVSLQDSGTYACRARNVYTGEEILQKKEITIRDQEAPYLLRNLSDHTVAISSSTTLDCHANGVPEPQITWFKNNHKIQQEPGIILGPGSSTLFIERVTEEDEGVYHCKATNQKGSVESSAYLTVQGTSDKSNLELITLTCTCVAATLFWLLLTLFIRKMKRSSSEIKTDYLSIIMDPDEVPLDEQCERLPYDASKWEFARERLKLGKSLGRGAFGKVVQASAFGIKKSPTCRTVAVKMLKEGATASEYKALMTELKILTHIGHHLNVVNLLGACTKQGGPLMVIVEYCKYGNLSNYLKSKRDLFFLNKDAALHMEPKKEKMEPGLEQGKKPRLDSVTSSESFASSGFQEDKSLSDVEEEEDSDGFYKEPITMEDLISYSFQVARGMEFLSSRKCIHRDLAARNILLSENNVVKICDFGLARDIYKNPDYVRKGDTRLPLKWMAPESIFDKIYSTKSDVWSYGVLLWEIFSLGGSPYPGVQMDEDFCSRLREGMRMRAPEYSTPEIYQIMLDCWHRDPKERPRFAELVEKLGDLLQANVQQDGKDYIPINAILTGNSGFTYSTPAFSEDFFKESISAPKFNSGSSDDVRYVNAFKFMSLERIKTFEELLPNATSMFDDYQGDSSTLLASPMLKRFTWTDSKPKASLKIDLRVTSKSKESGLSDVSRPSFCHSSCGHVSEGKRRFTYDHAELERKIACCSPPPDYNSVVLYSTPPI

Structure (SMILES) | IC50
O=C(O)CCCCC1CCSS1 (stereo not drawn) [LIPOIC ACID, ALPHA] | Not Active
Oc1ccc2c3c1O[C@H]1[C@@H](O)CC[C@@]4(O)[C@@H](C2)N(CC2CCC2)CC[C@]314 [NALBUPHINE] | Not Active
C[C@]12C=CC(=O)C=C1CC[C@@H]1[C@@H]2C(=O)C[C@@]2(C)[C@H]1CC[C@]2(O)C(=O)CO [PREDNISONE] | Not Active
OCCOCCN1CCN(C2=Nc3ccccc3Sc3ccccc32)CC1 [QUETIAPINE] | Not Active
COC(=O)[C@H]1[C@H]2C[C@@H]3c4[nH]c5cc(OC)ccc5c4CCN3C[C@H]2C[C@@H](OC(=O)c2cc(OC)c(OC)c(OC)c2)[C@@H]1OC [RESERPINE] | Not Active
O=C(O)c1ccccc1O [SALICYLIC ACID] | Not Active

target: T1, C-C chemokine receptor type 4 (Homo sapiens, UniProt P51679); test: not given; assay type: cell membranes, Membrane; conditions: chem-1; note: in other assays of this panel Not Active means under 50% inhibition at 10 µM
T1 sequence (P51679 whole entry): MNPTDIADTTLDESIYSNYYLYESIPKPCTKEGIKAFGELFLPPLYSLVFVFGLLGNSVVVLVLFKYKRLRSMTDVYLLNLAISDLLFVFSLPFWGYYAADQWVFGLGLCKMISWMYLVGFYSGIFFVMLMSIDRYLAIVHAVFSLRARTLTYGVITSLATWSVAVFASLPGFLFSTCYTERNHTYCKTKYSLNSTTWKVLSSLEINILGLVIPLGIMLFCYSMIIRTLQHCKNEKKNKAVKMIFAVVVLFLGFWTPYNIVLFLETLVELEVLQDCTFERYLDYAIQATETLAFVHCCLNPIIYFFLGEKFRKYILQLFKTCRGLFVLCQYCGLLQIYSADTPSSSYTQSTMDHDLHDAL

Structure (SMILES) | IC50
O=C(O)CCCCC1CCSS1 (stereo not drawn) [LIPOIC ACID, ALPHA] | Not Active
Oc1ccc2c3c1O[C@H]1[C@@H](O)CC[C@@]4(O)[C@@H](C2)N(CC2CCC2)CC[C@]314 [NALBUPHINE] | Not Active
C[C@]12C=CC(=O)C=C1CC[C@@H]1[C@@H]2C(=O)C[C@@]2(C)[C@H]1CC[C@]2(O)C(=O)CO [PREDNISONE] | Not Active
OCCOCCN1CCN(C2=Nc3ccccc3Sc3ccccc32)CC1 [QUETIAPINE] | Not Active
COC(=O)[C@H]1[C@H]2C[C@@H]3c4[nH]c5cc(OC)ccc5c4CCN3C[C@H]2C[C@@H](OC(=O)c2cc(OC)c(OC)c(OC)c2)[C@@H]1OC [RESERPINE] | Not Active
O=C(O)c1ccccc1O [SALICYLIC ACID] | Not Active
C[S+]([O-])c1ccc(-c2nc(-c3ccncc3)c(-c3ccc(F)cc3)[nH]2)cc1 (configuration not stated) [SB-203580] | Not Active

target: T2, Cathepsin G (Homo sapiens, UniProt P08311); test: not given; assay type: tissue-based; conditions: neutrophil;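 note: inhibition of Cathepsin G enzyme activity, tested on an AMC-conjugated peptide substrate; in other assays of this panel Not Active means under 50% inhibition at 10 µM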
T2 sequence (P08311 whole entry): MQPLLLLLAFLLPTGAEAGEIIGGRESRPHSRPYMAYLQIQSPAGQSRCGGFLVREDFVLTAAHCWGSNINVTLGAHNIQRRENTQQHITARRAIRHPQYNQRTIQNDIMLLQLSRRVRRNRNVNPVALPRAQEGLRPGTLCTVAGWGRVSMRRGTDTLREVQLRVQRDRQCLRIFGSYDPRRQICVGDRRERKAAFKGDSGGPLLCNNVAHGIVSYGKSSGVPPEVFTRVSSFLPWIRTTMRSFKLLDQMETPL

Structure (SMILES) | IC50
O=C(O)CCCCC1CCSS1 (stereo not drawn) [LIPOIC ACID, ALPHA] | Not Active
Oc1ccc2c3c1O[C@H]1[C@@H](O)CC[C@@]4(O)[C@@H](C2)N(CC2CCC2)CC[C@]314 [NALBUPHINE] | Not Active
C[C@]12C=CC(=O)C=C1CC[C@@H]1[C@@H]2C(=O)C[C@@]2(C)[C@H]1CC[C@]2(O)C(=O)CO [PREDNISONE] | Not Active
OCCOCCN1CCN(C2=Nc3ccccc3Sc3ccccc32)CC1 [QUETIAPINE] | Not Active
COC(=O)[C@H]1[C@H]2C[C@@H]3c4[nH]c5cc(OC)ccc5c4CCN3C[C@H]2C[C@@H](OC(=O)c2cc(OC)c(OC)c(OC)c2)[C@@H]1OC [RESERPINE] | Not Active
O=C(O)c1ccccc1O [SALICYLIC ACID] | Not Active
C[S+]([O-])c1ccc(-c2nc(-c3ccncc3)c(-c3ccc(F)cc3)[nH]2)cc1 (configuration not stated) [SB-203580] | Not Active

target: Protein phosphatase 3 catalytic subunit alpha (Homo sapiens, UniProt Q08209); test: not given; set-up: species or system Escherichia coli; conditions: not given

Structure (SMILES) | IC50
O=C(O)CCCCC1CCSS1 (stereo not drawn) [LIPOIC ACID, ALPHA] | Not Active
Oc1ccc2c3c1O[C@H]1[C@@H](O)CC[C@@]4(O)[C@@H](C2)N(CC2CCC2)CC[C@]314 [NALBUPHINE] | Not Active
C[C@]12C=CC(=O)C=C1CC[C@@H]1[C@@H]2C(=O)C[C@@]2(C)[C@H]1CC[C@]2(O)C(=O)CO [PREDNISONE] | Not Active
OCCOCCN1CCN(C2=Nc3ccccc3Sc3ccccc32)CC1 [QUETIAPINE] | Not Active
COC(=O)[C@H]1[C@H]2C[C@@H]3c4[nH]c5cc(OC)ccc5c4CCN3C[C@H]2C[C@@H](OC(=O)c2cc(OC)c(OC)c(OC)c2)[C@@H]1OC [RESERPINE] | Not Active
O=C(O)c1ccccc1O [SALICYLIC ACID] | Not Active
C[S+]([O-])c1ccc(-c2nc(-c3ccncc3)c(-c3ccc(F)cc3)[nH]2)cc1 (configuration not stated) [SB-203580] | Not Active

target: Tyrosine-protein kinase Fyn (Homo sapiens, UniProt P06241); test: biochemical; assay type: cell-based, Insect cells; conditions: insect cells
Sequence (P06241 whole entry): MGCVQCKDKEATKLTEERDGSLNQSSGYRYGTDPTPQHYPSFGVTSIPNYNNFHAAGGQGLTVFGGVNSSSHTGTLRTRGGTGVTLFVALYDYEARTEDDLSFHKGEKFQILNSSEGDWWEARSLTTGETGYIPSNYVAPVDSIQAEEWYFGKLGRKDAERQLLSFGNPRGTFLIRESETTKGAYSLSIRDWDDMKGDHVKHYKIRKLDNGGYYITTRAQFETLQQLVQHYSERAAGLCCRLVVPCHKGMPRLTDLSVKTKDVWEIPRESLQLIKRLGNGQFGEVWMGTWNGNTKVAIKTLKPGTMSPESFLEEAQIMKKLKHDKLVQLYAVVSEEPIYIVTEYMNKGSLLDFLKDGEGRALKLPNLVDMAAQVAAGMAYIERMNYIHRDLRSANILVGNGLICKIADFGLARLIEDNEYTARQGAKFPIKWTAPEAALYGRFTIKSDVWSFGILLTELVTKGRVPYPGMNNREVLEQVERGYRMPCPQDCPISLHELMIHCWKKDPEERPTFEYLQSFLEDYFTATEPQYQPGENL

Structure (SMILES) | IC50
O=C(O)CCCCC1CCSS1 (stereo not drawn) [LIPOIC ACID, ALPHA] | Not Active
Oc1ccc2c3c1O[C@H]1[C@@H](O)CC[C@@]4(O)[C@@H](C2)N(CC2CCC2)CC[C@]314 [NALBUPHINE] | Not Active
C[C@]12C=CC(=O)C=C1CC[C@@H]1[C@@H]2C(=O)C[C@@]2(C)[C@H]1CC[C@]2(O)C(=O)CO [PREDNISONE] | Not Active
OCCOCCN1CCN(C2=Nc3ccccc3Sc3ccccc32)CC1 [QUETIAPINE] | Not Active
COC(=O)[C@H]1[C@H]2C[C@@H]3c4[nH]c5cc(OC)ccc5c4CCN3C[C@H]2C[C@@H](OC(=O)c2cc(OC)c(OC)c(OC)c2)[C@@H]1OC [RESERPINE] | Not Active
O=C(O)c1ccccc1O [SALICYLIC ACID] | Not Active
